Structures can show the parent of a compound that is named as a salt.
target: DDR1 kinase (Homo sapiens, UniProt Q08345); assay: Evaluation of DDR1 kinase inhibition (LANCE Ultra TR-FRET kinase assay); type: biochemical; design: purchased Carna Biosciences 08-113; conditions: DDR1 protein 0.5 nM, LANCE Ultra ULight-poly GAT substrate, 2 hours at room temperature, duplicate; read-out: DDR-1 IC50
Sequence (Q08345 19-876 isoform Q08345-2 limits assumed): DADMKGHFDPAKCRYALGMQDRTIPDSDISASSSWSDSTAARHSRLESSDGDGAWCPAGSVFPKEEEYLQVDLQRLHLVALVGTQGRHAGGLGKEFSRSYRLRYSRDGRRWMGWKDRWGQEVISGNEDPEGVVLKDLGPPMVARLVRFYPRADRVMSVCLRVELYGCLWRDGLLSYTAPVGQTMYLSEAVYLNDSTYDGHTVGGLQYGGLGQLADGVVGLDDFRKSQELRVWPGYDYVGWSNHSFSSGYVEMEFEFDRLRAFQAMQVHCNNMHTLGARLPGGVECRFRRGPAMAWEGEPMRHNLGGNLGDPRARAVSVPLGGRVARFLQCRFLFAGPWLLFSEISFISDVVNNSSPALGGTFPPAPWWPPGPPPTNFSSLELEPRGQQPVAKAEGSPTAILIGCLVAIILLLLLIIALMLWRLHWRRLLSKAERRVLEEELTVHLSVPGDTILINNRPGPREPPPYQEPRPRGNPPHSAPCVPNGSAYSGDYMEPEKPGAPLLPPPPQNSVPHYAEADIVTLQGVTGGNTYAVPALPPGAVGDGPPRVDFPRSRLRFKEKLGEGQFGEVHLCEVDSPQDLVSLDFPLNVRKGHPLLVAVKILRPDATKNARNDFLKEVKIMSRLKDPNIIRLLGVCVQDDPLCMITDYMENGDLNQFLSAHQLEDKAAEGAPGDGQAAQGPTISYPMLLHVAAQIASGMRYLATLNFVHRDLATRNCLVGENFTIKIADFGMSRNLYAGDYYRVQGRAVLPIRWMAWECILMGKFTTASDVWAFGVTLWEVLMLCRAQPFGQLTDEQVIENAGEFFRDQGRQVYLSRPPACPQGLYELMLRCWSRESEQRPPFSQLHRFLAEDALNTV

Row | SMILES | IC50
1 | Nc1cc(C(=O)N2CC(c3nn(Cc4noc(C5CCOCC5)n4)c4cccc(F)c34)C2)ccn1 [Compound E-137] | 34 nM
2 | Nc1cc(C(=O)N2CC(c3nn(CC4CN(c5ccccc5)C4)c4cc(F)cc(F)c34)C2)ccn1 [Compound E-157, 4-(3-{4,6-difluoro-1-[(1-phenylazetidin-3-yl)methyl)-1H-indazol-3-yl}azetidine-1-carbonyl)pyridin-2-amine] | 350 nM
3 | Nc1cc(C(=O)N2CC(c3nn(CC(=O)N4CCOc5ccccc54)c4cc(F)cc(F)c34)C2)ccn1 [Compound E-159, 2-{3-{1-(2-aminopyridine-4-carbonyl)azetidin-3-yl]-4,6-difluoro-1H-indazol-1-yl]-1-(3,4-dihydro-2H-1,4-benzoxazin-4-yl)ethan-1-one] | 1.2 nM
4 | CN(CC(F)(F)F)C(=O)Cn1nc(C2(C)CN(C(=O)c3ccnc(N)c3)C2)c2ccccc21 [Compound E-273, 2-{3-[1-(2-aminopyridine-4-carbonyl)-3-methylazetidin-3-yl]-1H-indazol-1-yl}-N-methyl-N-(2,2,2-trifluoroethyl)acetamide] | 60 nM
5 | Nc1cc(C(=O)N2CC(c3nn(CC(=O)NC4CC5CCC4C5)c4cccc(F)c34)C2)ccn1 (stereo not shown) [Compound E-238, 2-{3-[1-(2-aminopyridine-4-carbonyl)azetidin-3-yl]-4-fluoro-1H-indazol-1-yl}-N-{bicyclo[2.2.1]heptan-2-yl}acetamide] | 5.6 nM
6 | Nc1cc(C(=O)N2CC(c3nn(CC(=O)NC45CC(C4)C5)c4cccc(F)c34)C2)ccn1 [Compound E-239, 2-{3-[1-(2-aminopyridine-4-carbonyl)azetidin-3-yl]-4-fluoro-1H-indazol-1-yl}-N-{bicyclo[1.1.1]pentan-1-yl}acetamide] | 3.3 nM
7 | Cc1nc(N)sc1C(=O)N1CC(c2nn(CC(=O)N3CCO[C@@H](C(F)(F)F)C3)c3cc(F)cc(F)c23)C1 [Compound E-173, 2-(3-[1-(2-amino-4-methyl-1,3-thiazole-5-carbonyl)azetidin-3-yl]-4,6-difluoro-1H-indazol-1-yl}-1-[(2R)-2-(trifluoromethyl)morpholin-4-yl]ethan-1-one] | 70 nM
8 | Nc1cc(C(=O)N2CC(c3nn(Cc4cn(CC5COC5)nn4)c4cccc(F)c34)C2)ccn1 [Compound E-38] | 190 nM
9 | CC1(C)CN(C(=O)Cn2nc(C3CN(C(=O)c4cc(N)ncc4F)C3)c3c(F)cc(F)cc32)CCO1 [Compound E-176, 2-{3-[1-(2-amino-5-fluoropyridine-4-carbonyl)azetidin-3-yl)-4,6-difluoro-1H-indazol-1-yl}-1-(2,2-dimethylmorpholin-4-yl)ethan-1-one] | 8.4 nM
10 | Cc1noc(Cn2nc(C3CN(C(=O)c4ccnc(N)c4)C3)c3c(F)cccc32)n1 [Compound E-109, 4-(3-{4-fluoro-1-[(3-methyl-1,2,4-oxadiazol-5-yl)methyl]-1H-indazol-3-yl}azetidine-1-carbonyl)pyridin-2-amine] | 210 nM
11 | CN(CC(F)(F)F)C(=O)Cn1nc(C2CN(C(=O)c3ccnc(N)n3)C2)c2cc(F)ccc21 [Compound E-293, 2-{3-[1-(2-aminopyrimidine-4-carbonyl)azetidin-3-yl]-5-fluoro-1H-indazol-1-yl]-N-methyl-N-(2,2,2-trifluoroethyl)acetamide] | 26 nM
12 | Nc1cc(C(=O)N2CC(c3nn(CC(=O)NCC(F)(F)F)c4cccc(Cl)c34)C2)ccn1 [Compound E-62, 2-{3-[1-(2-aminopyridine-4-carbonyl)azetidin-3-yl}-4-chloro-1H-indazol-1-yl}-N-(2,2,2-trifluoroethyl)acetamide] | 9.3 nM
13 | CC1(NC(=O)Cn2nc(C3CN(C(=O)c4ccnc(N)c4)C3)c3ccccc32)CCOCC1 [Compound E-209, 2-{3-[1-(2-aminopyridine-4-carbonyl)azetidin-3-yl]-1H-indazol-1-yl}-N-(4-methyloxan-4-yl)acetamide] | 280 nM
14 | Cc1nc(N)sc1C(=O)N1CCC(c2nn(CC(=O)N3CCC[C@H]3C(F)(F)F)c3cccc(F)c23)CC1 [Compound E-119, 2-{3-[1-(2-amino-4-methyl-1,3-thiazole-5-carbonyl)piperidin-4-yl]-4-fluoro-1H-indazol-1-yl}·1-[(2S)-2-(trifluoromethyl)pyrrolidin-1-yl]ethan-1-one] | 4.4 nM
15 | COCC(C)(C)NC(=O)Cn1nc(C2CN(C(=O)c3ccnc(N)c3)C2)c2ccccc21 [Compound E-208] | 170 nM
16 | Nc1cc(C(=O)N2CC(c3nn(Cc4cn(CC(F)(F)F)nn4)c4cccc(F)c34)C2)ccn1 [Compound E-52, 4-[3-(1-{[1-(2,2,2-trifluoroethyl)-1H-1,2,3-triazol-4-yl]methyl]-4-fluoro-1H-indazol-3-yl)azetidine-1-carbonyl]pyridin-2-amine hydrochloride] | 43 nM
17 | Nc1cc(C(=O)N2CC(c3nn(Cc4noc(C5(C(F)(F)F)CC5)n4)c4cncc(F)c34)C2)ccn1 [Compound E-14, 4-{3-[4-fluoro-1-({5-[1-(trifluoromethyl)cyclopropyl]-1,2,4-oxadiazol-3-yl)methyl)-1H-pyrazolo[3,4-c]pyridin-3-yl]azetidine-1-carbonyl}pyridin-2-amine] | 5.1 nM
18 | Nc1cc(C(=O)N2CC(c3nn(CC(=O)N4CCc5ccc(Br)cc54)c4cc(F)cc(F)c34)C2)ccn1 [Compound E-161] | 0.3 nM
19 | Nc1cc(C(=O)N2CC(c3nn(CC(=O)N4CCC[C@H]4COC(F)(F)F)c4cc(F)cc(F)c34)C2)ccn1 [Compound E-56, 2-{3-[1-(2-aminopyridine-4-carbonyl)azetidin-3-yl]-4,6-difluoro-1H-indazol-1-yl}-1-[(2S)-2-[(trifluoromethoxy)methyl]pyrrolidin-1-yl]ethan-1-one] | 0.8 nM

Continued, values first:

Row | IC50 | SMILES
20 | 54 nM | CO[C@H]1CCN(C(=O)Cn2nc(C3CN(C(=O)c4cc(N)ncc4F)C3)c3ccccc32)C1 [Compound E-230, 2-{3-[1-(2-amino-5-fluoropyridine-4-carbonyl)azetidin-3-yl]-1H-indaaol-1-yl}-1-[(3S)-3-methoxypyrrolidin-1-yl]ethan-1-one]
21 | 0.8 nM | O=C(c1ccc2[nH]ncc2c1)N1CC(c2nn(CC(=O)N3CCC[C@H]3C(F)(F)F)c3cc(F)cc(F)c23)C1 [Compound E-140, 2-{4,6-difluoro-3-[1-(1H-indazole-5-carbonyl)azetidin-3-yl]-1H-indazol-1-yl}-1-[(28)-2-(trifluoromethyl)pyrrolidin-1-yl]ethan-1-one]
22 | 9.9 nM | Nc1cc(C(=O)N2CCC(c3nn(CC(=O)N4CCC[C@H]4C(F)(F)F)c4ccccc34)CC2)c(F)cn1 [Compound E-49, 2-{3-[1-(2-amino-5-fluoropyridine-4-carbonyl)piperidin-4-yl]-1H-indazol-1-yl}-1-[(2S)-2-(trifluoromethyl)pyrrolidin-1-yl]ethan-1-one]
23 | 2 nM | CN(CC1CC(F)(F)C1)C(=O)Cn1nc(C2CN(C(=O)c3cc(N)ncc3F)C2)c2ccccc21 [Compound E-256, 2-{3-[1-(2-amino-5-fluoropyridine-4-carbonyl)azetidin-3-yl]-1H-indazol-1-yl]-N-[(3,3-difluorocyclobutyl)methyl]-N-methylacetamide]
24 | 3.5 nM | CCN(CC(F)(F)F)C(=O)Cn1nc(C2CN(C(=O)c3cc(N)ncc3F)C2)c2ccccc21 [Compound E-249, 2-{3-[1-(2-amino-5-fluoropyridine-4-carbonyl)azetidin-3-yl]-1H-indazol-1-yl}-N-ethyl-N-(2,2,2-trifluoroethyl)acetamide]
25 | 6.5 nM | Nc1cc(C(=O)N2CC(c3nn(CC(=O)N4CCC[C@@H]4C(F)(F)F)c4ccccc34)C2)c(F)cn1 [Compound E-60, 2-{3-[1-(2-amino-5-fluoropyridine-4-carbonyl)azetidin-3-yl]-1H-indazol-1-yl}-1-[(2R)-2-(trifluoromethyl)pyrrolidin-1-yl]ethan-1-one]
26 | 0.9 nM | Nc1cc(C(=O)N2CC(c3nn(CC(=O)N4CCC[C@H]4C(F)(F)F)c4cc(F)c(F)cc34)C2)c(F)cn1 [Compound E-280]
27 | 2.1 nM | Nc1cc(C(=O)N2CC(c3nn(CC(=O)N4CCCC(C(F)(F)F)C4)c4ccccc34)C2)c(F)cn1 (stereo not shown) [Compound E-259, 2-{3-[1-(2-amino-5-fluoropyridine-4-carbonyl)azetidin-3-yl}-1H-indazol-1-yl}-1-[3-(trifluoromethyl)piperidin-1-yl]ethan-1-one]
28 | 1.6 nM | Nc1cc(C(=O)N2CC(c3nn(CC(=O)N4CCC[C@H]4C(F)(F)F)c4ccc(Cl)cc34)C2)ccn1 [Compound E-207, 2-{3-[1-(2-aminopyridine-4-carbonyl)azetidin-3-yl]-6-chloro-1H-indazol-1-yl}-1-[(28)-2-(trifluoromethyl)pyrrolidin-1-yl]ethan-1-one]
29 | 82 nM | Nc1cc(C(=O)N2CC(c3nn(CC(=O)N4CCC5CC54)c4ccccc34)C2)ccn1 (stereo not shown) [Compound E-223, 2-{3-[1-(2-aminopyridine-4-carbonyl)azetidin-3-yl]-1H-indazol-1-yl}-1-{2-azabicyclo[3.1.0)hexan-2-yl}ethan-1-one]
30 | 9 nM | Nc1cc(C(=O)N2CC(c3nn(CC(=O)N4CCC[C@H]4C(F)(F)F)c4c3CC(F)(F)CC4)C2)c(F)cn1 [Compound E-25]
31 | 2.4 nM | Nc1cc(C(=O)N2CC(c3nn(CC(=O)N4CCC[C@H]4C(F)(F)F)c4cc(F)cc(F)c34)C2)c(F)cn1 [Compound E-155]
32 | 3.6 nM | CC(C)(C)OC(=O)Cn1nc(C2CN(C(=O)c3cc(N)ncc3F)C2)c2ccccc21 [Compound E-220, tert-butyl 2-{3-[1-(2-amino-5-fluoropyridine-4-carbony)azetidin-3-yl]-1H-indazol-1-yl}acetate]
33 | 8.8 nM | Nc1cc(C(=O)N2CC(c3nn(CC(=O)N4CCOC[C@H]4C(F)(F)F)c4cc(F)cc(F)c34)C2)ccn1 [Compound E-123, 2-{3-[1-(2-aminopyridine-4-carbonyl)azetidin-3-yl]-4,6-difluoro-1H-indazol-1-yl}-1-[(3S)-3-(trifluoromethyl)morpholin-4-yl]ethan-1-one]
34 | 4.5 nM | Nc1nccc(C(=O)N2CC(c3nn(CC(=O)N4CCC[C@H]4C(F)(F)F)c4cc(F)c(F)cc34)C2)n1 [Compound E-283, 2-{3-[1-(2-aminopyrimidine-4-carbonyl)azetidin-3-yl]-5,6-diffuoro-1H-indazol-1-yl}-1-[(2S)-2-(trifluoromethyl)pyrrolidin-1-yl}ethan-1-one]

Source: patent publication EP4624465A1, “COMPOUND SERVING AS DDR1 KINASE INHIBITOR, AND MEDICINE” (Nippon Shinyaku Co., Ltd., priority 2022, dated 2024)
